Data: ChEMBL document CHEMBL1138012, “Parallel synthesis of acylsemicarbazide libraries: preparation of potent cyclin dependent kinase (cdk) inhibitors” (Bioorg Med Chem Lett, 2004)

How the values were obtained:
[1] = biological target: Cyclin-dependent kinase 2/cyclin E (Homo sapiens, UniProt P24941); experiment: Inhibitory concentration against Cyclin dependant kinase 2-cyclinE; format: protein-complex assay
[2] = biological target: Cyclin-dependent kinase 4/cyclin D1 (Homo sapiens, UniProt P11802); experiment: Inhibitory concentration against Cyclin dependant kinase 4-cyclinD1; format: protein-complex assay
Chain of Cyclin-dependent kinase 4/cyclin D1 (P11802 whole entry): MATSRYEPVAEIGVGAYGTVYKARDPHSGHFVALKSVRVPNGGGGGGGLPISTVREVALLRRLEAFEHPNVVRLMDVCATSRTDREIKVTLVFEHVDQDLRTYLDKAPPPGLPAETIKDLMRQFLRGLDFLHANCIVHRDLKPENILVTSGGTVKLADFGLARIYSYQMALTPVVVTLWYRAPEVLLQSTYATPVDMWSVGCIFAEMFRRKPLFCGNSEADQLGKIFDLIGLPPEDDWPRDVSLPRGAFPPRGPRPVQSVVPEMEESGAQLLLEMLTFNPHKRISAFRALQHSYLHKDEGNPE
Chain of Cyclin-dependent kinase 4/cyclin D1 (P24385 whole entry, further chain): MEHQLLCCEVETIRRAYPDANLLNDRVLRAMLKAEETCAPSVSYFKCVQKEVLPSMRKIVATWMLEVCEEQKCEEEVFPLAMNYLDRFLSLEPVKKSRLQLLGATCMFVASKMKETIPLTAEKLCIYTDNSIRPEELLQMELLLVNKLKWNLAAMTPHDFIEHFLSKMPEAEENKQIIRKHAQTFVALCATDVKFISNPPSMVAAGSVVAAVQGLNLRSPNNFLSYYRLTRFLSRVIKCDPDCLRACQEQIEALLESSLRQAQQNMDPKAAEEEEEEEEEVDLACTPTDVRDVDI

[3] = system: HCT-116; experiment: Inhibitory concentration against human colon cancer HCT116 cell line; format: functional, cell-based

SMILES: COc1ccc(-c2[nH]nc3c2C(=O)c2c(NC(=O)NNC(=O)c4cccc([N+](=O)[O-])c4)cccc2-3)cc1
- IC50 [1]: 20 nM
- IC50 [2]: 10 nM

SMILES: COc1ccc(-c2[nH]nc3c2C(=O)c2c(NC(=O)NNC(=O)Nc4ccccc4)cccc2-3)cc1
- IC50 [3]: 280 nM
- IC50 [1]: 10 nM

SMILES: COc1ccc(-c2[nH]nc3c2C(=O)c2c(NC(=O)NNC(=O)c4cc(N)cc(N)c4)cccc2-3)cc1
- IC50 [1]: 30 nM
- IC50 [2]: 10 nM

SMILES: COc1ccc(-c2[nH]nc3c2C(=O)c2c(NC(=O)NNC(=O)c4ccccc4O)cccc2-3)cc1
- IC50 [3]: 80 nM
- IC50 [1]: 9 nM
- IC50 [2]: 60 nM

SMILES: COc1ccc(-c2[nH]nc3c2C(=O)c2c(NC(=O)NNC(=O)C(C)C)cccc2-3)cc1
- IC50 [1]: 10 nM
- IC50 [2]: 6.5 nM

SMILES: COc1ccc(-c2[nH]nc3c2C(=O)c2c(NC(=O)NNC(=O)c4ccc(O)cc4O)cccc2-3)cc1
- IC50 [3]: 250 nM
- IC50 [1]: 10 nM
- IC50 [2]: 10 nM

SMILES: COc1ccc(-c2[nH]nc3c2C(=O)c2c(NC(=O)NNC(=O)c4ccc5ccccc5c4)cccc2-3)cc1
- IC50 [3]: 120 nM
- IC50 [1]: 30 nM
- IC50 [2]: 10 nM

SMILES: COc1ccc(-c2[nH]nc3c2C(=O)c2c(NC(=O)NNC(=O)c4ccccc4OC)cccc2-3)cc1
- IC50 [3]: 40 nM
- IC50 [1]: 10 nM

SMILES: COc1ccc(-c2[nH]nc3c2C(=O)c2c(NC(=O)NNC(=O)c4cccc(C)c4)cccc2-3)cc1
- IC50 [1]: 10 nM
- IC50 [2]: 7 nM

SMILES: COc1ccc(C(=O)NNC(=O)Nc2cccc3c2C(=O)c2c(-c4ccc(OC)cc4)n[nH]c2-3)cc1
- IC50 [1]: 10 nM
- IC50 [2]: 10 nM

SMILES: COc1ccc(-c2[nH]nc3c2C(=O)c2c(NC(=O)NNC(=O)c4ccc(C)cc4)cccc2-3)cc1
- IC50 [3]: 140 nM
- IC50 [1]: 20 nM

SMILES: COc1ccc(-c2[nH]nc3c2C(=O)c2c(NC(=O)NNC(N)=O)cccc2-3)cc1
- IC50 [1]: 130 nM

SMILES: COc1ccc(-c2[nH]nc3c2C(=O)c2c(NC(=O)NNC(=O)Cc4ccccc4)cccc2-3)cc1
- IC50 [1]: 30 nM
- IC50 [2]: 20 nM

SMILES: COc1ccc(-c2[nH]nc3c2C(=O)c2c(NC(=O)NNC(=O)c4ccc(N)cc4)cccc2-3)cc1
- IC50 [3]: 70 nM
- IC50 [1]: 10 nM
- IC50 [2]: 10 nM

SMILES: COc1ccc(-c2[nH]nc3c2C(=O)c2c(NC(=O)NNC(=O)c4ccncc4)cccc2-3)cc1
- IC50 [3]: 190 nM
- IC50 [1]: 10 nM
- IC50 [2]: 9 nM

SMILES: COc1ccc(-c2[nH]nc3c2C(=O)c2c(NC=O)cccc2-3)cc1
- IC50 [1]: 240 nM
- IC50 [2]: 400 nM

SMILES: COc1ccc(-c2[nH]nc3c2C(=O)c2c(NC(=O)NNC(=O)c4cccc(N)c4)cccc2-3)cc1
- IC50 [3]: 80 nM
- IC50 [1]: 10 nM
- IC50 [2]: 7 nM

SMILES: COc1ccc(-c2[nH]nc3c2C(=O)c2c(NC(=O)NNC(C)=O)cccc2-3)cc1
- IC50 [1]: 30 nM
- IC50 [2]: 50 nM

SMILES: COc1ccc(-c2[nH]nc3c2C(=O)c2c(NC(=O)NNC(=O)c4cc(Cl)ccc4Cl)cccc2-3)cc1
- IC50 [1]: 30 nM
- IC50 [2]: 20 nM

SMILES: COC(=O)NNC(=O)Nc1cccc2c1C(=O)c1c-2n[nH]c1-c1ccc(OC)cc1
- IC50 [3]: 50 nM
- IC50 [1]: 10 nM
- IC50 [2]: 8 nM

SMILES: COc1ccc(-c2[nH]nc3c2C(=O)c2c(NC(=O)NNC(=O)c4ccc(O)cc4)cccc2-3)cc1
- IC50 [3]: 1100 nM
- IC50 [2]: 5 nM

SMILES: COc1ccc(-c2[nH]nc3c2C(=O)c2c(NC(=O)NNC(=O)c4ccccc4)cccc2-3)cc1
- IC50 [3]: 30 nM
- IC50 [1]: 10 nM
- IC50 [2]: 7 nM

SMILES: COc1ccc(-c2[nH]nc3c2C(=O)c2c(NC(=O)NNC(=O)c4cccnc4)cccc2-3)cc1
- IC50 [3]: 190 nM
- IC50 [1]: 10 nM
- IC50 [2]: 9 nM

SMILES: COc1ccc(-c2[nH]nc3c2C(=O)c2c(NC(=O)NNC(=O)c4cccc5ccccc45)cccc2-3)cc1
- IC50 [1]: 50 nM

SMILES: COc1ccc(-c2[nH]nc3c2C(=O)c2c(NC(=O)NNC(=O)C(N)=O)cccc2-3)cc1
- IC50 [3]: 1200 nM
- IC50 [1]: 90 nM
- IC50 [2]: 240 nM

SMILES: COc1ccc(-c2[nH]nc3c2C(=O)c2c(NC(=O)NNC(=O)c4cc(OC)cc(OC)c4)cccc2-3)cc1
- IC50 [1]: 40 nM
- IC50 [2]: 20 nM

SMILES: COc1ccc(-c2[nH]nc3c2C(=O)c2c(NC(=O)NNC(=O)CCc4ccc(O)cc4)cccc2-3)cc1
- IC50 [1]: 10 nM
- IC50 [2]: 9 nM

SMILES: COc1ccc(-c2[nH]nc3c2C(=O)c2c(NC(=O)NNC(=O)c4ccc(O)c(N)c4)cccc2-3)cc1
- IC50 [1]: 20 nM
- IC50 [2]: 7 nM

SMILES: COc1ccc(-c2[nH]nc3c2C(=O)c2c(NC(=O)NNC(=O)c4ccc(O)c(O)c4)cccc2-3)cc1
- IC50 [1]: 10 nM
- IC50 [2]: 5 nM

SMILES: COc1ccc(-c2[nH]nc3c2C(=O)c2c(NC(=O)NNC(=O)c4cc(OC)c(OC)c(OC)c4)cccc2-3)cc1
- IC50 [1]: 20 nM
- IC50 [2]: 7 nM
